Test results as given in patent US20250186536A1, “SUSTAINED RELEASE PEPTIDE FORMULATIONS” (RHYTHM PHARMACEUTICALS, INC., priority 2017, published 2025).

How the values were obtained:
[1] = Part A single-dose pharmacokinetics of long-acting setmelanotide formulation in healthy obese subjects; type: in vivo, human; details: for AUC(0-inf) / Cmax / Tmax / half-life: human, plasma; for Tmax: read-out: median tmax
Protocol: (§1) In order to assess the pharmacokinetics of setmelanotide, a two part study was carried out comprising single dose administration (Part A) and multiple dose administration (Part B) with healthy obese subjects.
(§2) Part A was a rising-dose, placebo-controlled study including up to 3 sequential panels. For each panel, 10 normal obese subjects in good health between the ages of 21 and 54 were assigned to randomly-ordered treatments which included 8 active and 2 placebo treatments. Data acquired from Part A were used to determine the dose and dosing regimen for Part B. In Part B, 12 normal healthy obese patients were randomly assigned to receive either 6 active and 6 placebo treatments. Subjects received once weekly subcutaneous injection of the assigned formulation for 4 weeks. Patients in Part B were housed in the clinical unit for the 28 days.
(§3) Setmelanotide was formulated in a sterile liquid polar lipid phase consisting of soy phosphatidylcholine, glycerol dioleate, ethanol and citrate buffer. Without being bound by theory, the setmelanotide formulation behaves in a long-acting fashion, wherein when injected subcutaneously, aqueous body fluid is absorbed by the lipid phase to form a gel like depot consisting of liquid crystals formed in situ.
10 normal obese subjects enrolled for each dose level of Part A; 8 received active drug, and 2 received placebo. There were 3 dose levels used in the single dose phase which were administered according to the sequential, rising dose design. The single setmelanotide doses administered were in sequence: 2.5 mg, 10 mg, and 30 mg. Setmelanotide concentrations were analyzed and safety was assessed before the next higher dose level was started. The drug was administered subcutaneously on the morning of dosing. Blood samples were collected prior to dosing and at 0.5, 1, 2, 3, 4, 6, 8, 10, 12, 16, 24, 30, and 36 hours post-dose (in the clinic), then at approximately 48, 60, 72, 96, 120, 168, 240, and 336 hours post-dose as outpatients. Based on the PK analysis of the first dose, additional blood samples were included for the 30 mg dose at 21 ([…]) and 28 ([…]) days post-dose. The actual times of blood collection were recorded.

[2] = Stability analysis of setmelanotide formulations (degradation by HPLC); type: physicochemical
Protocol: Components of exemplary setmelanotide formulations were varied in order to assess their impact on the stability of setmelanotide over time. In a first study, setmelanotide formulations were prepared as described in Example 2 with 30 mg/mL setmelanotide using different forms of GDO: 1) GDO of commercial purity; 2) GDO of commercial purity, which has been further purified to remove fatty acid compounds; and 3) synthetic GDO. The formulations were stored in 1 mL glass syringes equipped with staked stainless steel […] and rubber plungers at 40° C. for up to three months.
The effect of EDTA concentration on setmelanotide degradation was also investigated in a second study. Syringes containing setmelanotide formulations with higher EDTA along with GDO of varying sources were prepared, and setmelanotide degradation was quantified by HPLC over time. The results of this study are depicted in FIG. 6, and indicate that higher concentrations of EDTA have a small effect on setmelanotide stability in the presence of either GDO of commercial purity or synthetic GDO.
In a third study, the effect of setmelanotide and EDTA concentrations were explored in the presence of synthetic GDO.

[3] = Part B multiple-dose pharmacokinetics (once weekly for 4 weeks) in obese subjects; type: in vivo, human
Protocol: as §1, §2, §3
Twelve (12) obese subjects were enrolled in Part B; 6 received active drug, and 6 were given placebo. Based on results from Part A, setmelanotide 10 mg once weekly was selected as the dose for Part B. Subjects were housed in the clinical facility for the entire 4 weeks of study. Qualified subjects entered the clinical facility the evening before the first dose. Subjects assigned to active treatment received setmelanotide 10 mg subcutaneously in the morning on Day 1. Placebo subjects received the same volume of the placebo injection as the active treatment. Subjects were fasting from the evening before to 4 hours after dosing. Standard lowfat meals were served. Subjects were also dosed on Days 8, 15, and 22 with the treatment given on Day 1.
Blood samples were collected at a time before dosing and at 0.5, 1, 2, 3, 4, 6, 8, 10, 12, 16, 24, 30, 36, 48, 60, 72, 96, 120, 168, 240, and 336 hours during Week 1 and during Week 4. The actual sampling times were recorded. In addition, blood samples were collected at a time just before dosing for trough setmelanotide concentrations for evaluating the attainment of steady state.

[4] = 10 mg SC once weekly for 4 weeks

CC(=O)N[C@@H](CCCNC(=N)N)C(=O)N[C@H]1CSSC[C@@H](C(N)=O)NC(=O)[C@H](Cc2c[nH]c3ccccc23)NC(=O)[C@H](CCCNC(=N)N)NC(=O)[C@@H](Cc2ccccc2)NC(=O)[C@H](Cc2c[nH]cn2)NC(=O)[C@@H](C)NC1=O [setmelanotide]
dose proportionality of AUC∞ ([1]; 2.5 mg dose): less than proportional | dose proportionality of AUC ([1]; 10 mg and 30 mg doses): proportional | dose proportionality of Cmax ([1]; 2.5 to 30 mg dose range): roughly proportional | AUC(0-inf) ([1]; single SC dose 2.5 mg): 92.9 ng·h/mL | Cmax ([1]; single SC dose 2.5 mg): 2.92 ng/mL | Tmax ([1]; single SC dose 2.5 mg): 3.5 h | AUC(0-inf) ([1]; single SC dose 10 mg): 1140 ng·h/mL | Cmax ([1]; single SC dose 10 mg): 11.5 ng/mL | half-life ([1]; single SC dose 10 mg): 123 h | Tmax ([1]; single SC dose 10 mg): 4 h | AUC(0-inf) ([1]; single SC dose 30 mg): 3470 ng·h/mL | Cmax ([1]; single SC dose 30 mg): 34.1 ng/mL | half-life ([1]; single SC dose 30 mg): 159 h | Tmax ([1]; single SC dose 30 mg): 6 h | time by which all values were below quantifiable ([1]; single SC dose 2.5 mg): ≤ 96 h | time past which profile was defined ([1]; single SC dose 10 mg): > 168 h | time past which profile was defined ([1]; single SC dose 30 mg): > 168 h | earliest plasma sample time in which setmelanotide appeared ([1]; single SC dose, generally): 0.5 h | time measurable in plasma after dosing ([1]; single SC dose, generally): ≥ 2 weeks | time to maximum concentrations after dosing ([1]; single SC dose, generally over the three dose levels): about 4 hours | early burst effect or dose dumping ([1]; single dose administration): no early burst effect or dose dumping | lag-time of absorption ([1]; single dose administration): little to no lag-time | setmelanotide degradation ([2]; 15 mg/mL formulations compared with 30 mg/mL formulations, synthetic GDO): higher levels of degradation | setmelanotide degradation ([2]; 30 mg/mL formulation prepared with synthetic GDO vs GDO of commercial purity or further purified, 40° C. up to three months, HPLC): lower amount | effect of higher EDTA concentration on setmelanotide stability ([2]; GDO of commercial purity or synthetic GDO, HPLC over time): small effect | effect of increasing EDTA concentration on degradation ([2]; as setmelanotide concentration decreases, synthetic GDO): greater effect | accumulation index [3, 4]: 1.46 | lag in absorption [3, 4]: no lag in absorption | attainment of steady state (trough concentrations, visual inspection) ([3]; 10 mg SC once weekly, 4 weekly doses): attained during Week 4 | Cmax ([3]; human, plasma, 10 mg SC once weekly for 4 weeks): 11.4 ng/mL | level at 168 h ([3]; human, plasma, 10 mg SC once weekly for 4 weeks, end of 1-week dosing interval, read-out: mean concentration at 168 hours): 2.92 ng/mL | Tmax ([3]; human, plasma, 10 mg SC once weekly for 4 weeks, read-out: median tmax): 4 h
